How the values were obtained:
[1] = molecular target: T1, human MCH receptor 1 (MCHR1) (Homo sapiens, UniProt Q99705); experiment: human MCH receptor 1 (MCHR1) competitive binding assay with [125I]-MCH(4-19); conditions: test compound 0.1 μM, human MCHR1-expressing CHO cell membrane fraction, read-out: Binding inhibition rate % (0.1 μM)
T1 construct: expressed in transfected cells; host or cells: CHO cell clone 57 (membrane fraction)
Method in brief: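 Membranes from CHO cells expressing human MCHR1 incubated with [125I]-MCH(4-19) and test compound in 20 mM Tris-HCl pH 7.5/5 mM EDTA with protease inhibitors, 1 hr at room temperature. Bound radioactivity collected on PEI-treated GF/C filters; % inhibition at 0.1 μM compound, nonspecific binding set with cold MCH(1-19).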

[2] = system: male diet-induced obese F344/Jcl rats; experiment: Anorectic effect in male diet-induced obese F344/Jcl rats; type: in vivo, rat; conditions: Rattus norvegicus, po, 48 h, 5 mg/mL suspension at 2 mL/kg, two administrations, food intake for 2 days vs control group, read-out: Food intake suppression rate (%)
Experimental: Evaluation of Anorectic Effect Using Male Diet-Induced Obese F344/Jcl Rats
Male diet-induced obese F344/Jcl rats (44-50 weeks old) fed with a high-fat diet (D12451: Research Diets) from 5 weeks old were used. From before the start of experiment, the rats were singly housed, given a powder high-fat diet (D12451M: Research Diets), and habituated to oral administration with tap water. The food intake from the evening of the day before the start of experiment to the next morning was measured, and the rats were grouped based on both the food intake and the body weight of the previous day. In the evening of the day of the start of experiment and the next day, 0.5% methylcellulose solution was orally administered to the control group, and 0.5% methylcellulose suspension (5 mg/mL) of the test compound was orally administered to the compound administration group at 2 mL/kg (6 per group for both control group and compound administration group). The food intake for 2 days from the initial administration was measured. The food intake inhibition rate of each compound administration group to the control group was calculated.

human MCHR1 = molecular target: T2, human MCHR1 (Homo sapiens, UniProt Q99705); experiment: MCH receptor 1 antagonistic activity, Ca2+ mobilization assay; type: cell-based; conditions: CHO, test compound 0.1 μM; human MCHR1-expressing CHO cells (clone #4); ligand MCH(4-19) 2 nM; read-out: Inhibitory rate % (0.1 μM)
T2 construct: expressed in transfected cells; host or cells: CHO dhfr- cells, clone #4
T2 sequence (Q99705 whole entry): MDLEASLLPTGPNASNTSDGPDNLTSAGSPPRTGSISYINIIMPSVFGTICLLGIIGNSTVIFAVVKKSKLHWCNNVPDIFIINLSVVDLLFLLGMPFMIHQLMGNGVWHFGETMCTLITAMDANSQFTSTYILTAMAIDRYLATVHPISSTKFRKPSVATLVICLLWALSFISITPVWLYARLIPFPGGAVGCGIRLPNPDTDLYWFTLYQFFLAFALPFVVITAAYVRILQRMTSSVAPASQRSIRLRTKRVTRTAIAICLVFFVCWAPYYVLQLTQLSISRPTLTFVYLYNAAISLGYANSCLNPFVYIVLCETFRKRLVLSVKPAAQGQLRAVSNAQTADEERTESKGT
Method in brief: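 CHO dhfr− cells stably expressing human MCHR1 (clone #4) were used in a fluorometric Ca2+ mobilization assay. Test compounds were run at 0.1 μM, with antagonism expressed as percent inhibition.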

T1 sequence (Q99705 whole entry): as above

Row | Compound | inhibition at 0.1 µM [1] [%] | inhibition in vivo at 5000 µg/mL, 10 mg/kg [2] [%] | inhibition at 0.1 µM (human MCHR1) [%]
1 | Cn1c(C2CC2)nc2ccc(-n3ccc(OCc4ccc(F)cc4)cc3=O)cc21 [Example 2, 1-(2-Cyclopropyl-1-methyl-1H-benzimidazol-6-yl)-4-((4-fluorobenzyl)oxy)pyridin-2(1H)-one] | 80 | 27.8 | 99
2 | Cc1nc2ccc(-n3ccc(OCc4ccc(F)cc4)cc3=O)cc2n1C [Example 254, 1-(1,2-Dimethyl-1H-benzimidazol-6-yl)-4-((4-fluorobenzyl)oxy)pyridin-2(1H)-one] | 57 | 38.7 | 95
3 | CCc1nc2ccc(-n3ccc(OCc4ccc(F)cc4)cc3=O)cc2n1C [Example 63, 1-(2-Ethyl-1-methyl-1H-benzimidazol-6-yl)-4-((4-fluorobenzyl)oxy)pyridin-2(1H)-one] | 74 | 45.5 | 100

From patent publication US9365540B2, “Benzimidazole derivatives as MCH receptor antagonists” (Takeda Pharmaceutical Company Limited, priority 2012, dated 2016)
